Results taken from PubChem BioAssay AID179 (DTP/NCI, 2004).
Where “and” joins values, the source holds several entries; their conditions need not be identical. Equal entries are not always repeated. Calls of active or inactive are those of the source.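 The calls were made as follows: active = compounds giving half or more protection of infected cells from virus-caused growth loss, again on retest; inactive = the rest.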

Test system: CEM cells HIV-1 protection, formazan growth assay
Test: NCI AIDS Antiviral Assay
Conditions: for IC50: measured here: growth of uninfected CEM cells
How it was run: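 Protection of CEM cells against HIV-1 measured as cell growth via soluble formazan read-out, with five concentrations tested on both infected and uninfected cells; failure to protect may reflect toxicity.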

Row | Structure (SMILES) | EC50 [µM] | IC50 | outcome
1 | COC(=O)[C@H](Cc1ccccc1)NC(=O)N(CCNC(=O)OC(C)(C)C)c1ccccc1 | > 200 | 102 µM | –
2 | Cc1nn2cnnc2s1 | > 501 | > 501 µM | –
3 | Cn1c(-c2cccs2)cc(-c2ccsc2)c1-c1cccs1 | – | – | inactive
4 | c1ccc(P2c3ccccc3Oc3ccccc32)cc1 | > 200 | 35.5 µM | –
5 | CC1(C)N=C(N)N=C(N)N1c1ccc(CCCCc2ccc(S(=O)(=O)F)cc2Cl)c(Cl)c1 | > 107 | 1.41 µM | –
6 | COC(=O)NC(Nc1ccccn1)(C(F)(F)F)C(F)(F)F | > 200 | > 200 µM | –
7 | O=Cc1c[nH]c2nccnc12 | > 380 | 372 µM | –
8 | C=C1c2nc3ccccc3n2C=C(c2ccc(C)cc2)N1c1ccccc1 | > 200 | 1.35 µM | –
9 | CCCCCCCCCCC(O)CCCCCCC(=O)O (stereo not given) | – | – | inactive
10 | CCCCCCCCCCNC(=S)OC | – | – | inactive
11 | CC(=O)CCC(NC(C)=O)(C(=O)O)C(=O)O | > 200 | > 200 µM | –
12 | CCN(CC)CCn1c2cc3c(cc2c(=O)c2cccnc21)OCCO3 | > 200 | 6.61 µM | –
13 | CS(=O)(=O)ON1C(=O)c2ccc(N)cc2C1=O | > 372 | 282 µM | –
14 | CCOP(=O)(OCC)/C(F)=C/c1ccc(F)cc1 | – | – | inactive
15 | c1csc(-c2cscc2-c2cccs2)c1 | > 200 | 37.2 µM | –
16 | S=CN1CCN(C=S)CC1 | – | – | inactive
17 | COC(=O)C(=O)C(C#N)c1cccc2ccccc12 (stereo not given) | – | – | inactive
18 | COc1ccc2c(c1)C(=O)CC=C(C(=O)O)N2 | > 200 | > 200 µM | –
19 | O=Cc1ccc(-c2cccc([N+](=O)[O-])c2)s1 | > 200 | 166 µM | –
20 | CNc1cc([N+](=O)[O-])ccc1C(=O)N1CCC[C@H]1CO | > 200 | > 200 µM | –
21 | Cc1cc2c(c(C(=O)O)c1C)-c1cccc(F)c1C2=O | – | – | inactive
22 | CSc1nc2[nH]c(=O)c(C)nc2c(=O)[nH]1 | > 23.4 | > 23.4 µM | –

Row | Structure (SMILES) | EC50 [µM] | IC50 | outcome
23 | CC1=C(C(=O)Nc2cccc3c2C(=O)NC3=O)CC(C(=O)Nc2cccc3c2C(=O)NC3=O)=C(C)N1 | > 200 | > 200 µM | –
24 | COc1ccc(Nc2c3sc4cc(OC)ccc4nc-3c3ccccc3c2=O)cc1 | > 100 | > 100 µM | –
25 | Cc1ccc(C(=O)Nc2ccc(S(=O)(=O)O)c3cc(S(=O)(=O)O)cc(S(=O)(=O)O)c23)cc1NC(=O)Nc1cc(C(=O)Nc2ccc(S(=O)(=O)O)c3cc(S(=O)(=O)O)cc(S(=O)(=O)O)c23)ccc1C | 138 | 209 µM | –
26 | COc1ccc(S(=O)(=O)N[C@H](C(=O)O)c2ccccc2)cc1 | – | – | inactive
27 | Cc1cn(C2CC(N=[N+]=[N-])C(COP(=O)(O)OCC3CCC(n4ccc(N)nc4=O)O3)O2)c(=O)[nH]c1=O (stereo not given) | 0.0468 | 20 µM | –
28 | O=C1OCC(Cc2ccc3c(c2)OCO3)[C@H]1Cc1cccc(O)c1 (stereo not given in full) | > 200 | 79.4 µM | –
29 | O=C(O)CSCCOCCSCC(=O)O | > 708 | > 708 µM | –
30 | C/C(C=O)=C\c1ccc(N(C)C)cc1 | > 38 | > 38 µM | –
31 | OC1CC1Sc1ccccc1 (stereo not given) | – | – | inactive
32 | Cc1ccc(C)c(COCCOCn2cc(N3CCOCC3)c(=O)[nH]c2=O)c1 | > 200 | > 200 µM | –
33 | O=C1OC2C(O)OC3COC(=O)c4cc(O)c(O)c(O)c4-c4c(O)c(O)c5oc(=O)c6c(c(O)c(O)c7oc(=O)c4c5c76)-c4c(cc(O)c(O)c4O)C(=O)OC3C2OC(=O)c2cc(O)c(O)c(O)c2-c2c1cc(O)c(O)c2O (stereo not given) | 0.724 | 21.4 µM | –
34 | S=C(Nc1ccccc1)Nc1ccccc1S | > 200 | 112 µM | –
35 | O=Cc1cn(S(=O)(=O)c2ccccc2)c2ccccc12 | – | – | inactive
36 | O=c1nc2n(cc1/C=C\Br)C1CC(O)C(CO2)O1 (stereo not given) | – | – | inactive
37 | CC1=CC2c3c(O)cc(-c4cc5ccc(O)cc5o4)cc3OC3(c4ccc(O)cc4O)Oc4cc(O)ccc4[C@H](C1)C23 (stereo not given in full) | > 22.9 | 2.04 µM | –
38 | CC(C)CNC(=O)CCc1cccc2c1oc1c(CCN)cccc12 | > 200 | 14.8 µM | –
39 | CCOC(=O)N/N=C(\Cc1ccccc1)OCC | > 200 | > 200 µM | –
40 | CC(O)C(=O)[O][Pb]([CH3])([CH3])[CH3] (stereo not given) | > 200 | > 200 µM | –
41 | C[C@H]1CCC2C(CN3CCCCC3)C(=O)OC2[C@]2(C)C(=O)CC(N3CCCCC3)C12O (stereo not given in full) | – | – | inactive
42 | C/C=C/C=Nc1c(C#N)c2n(c1C(=O)Nc1ccc(S(N)(=O)=O)cc1)CCC2 | > 200 | 11 µM | –
43 | O=S(O)CCCSSCCCCSSCCCS(=O)O | – | – | inactive
44 | O=C(N/C(=C\c1ccc([N+](=O)[O-])cc1)c1nc2ccccc2s1)c1ccccc1 | > 32.4 | > 32.4 µM | –

Row | Structure (SMILES) | EC50 [µM] | IC50 | outcome
45 | Cc1ccc(C(=C2Sc3ccccc3S2)C(=C2Sc3ccccc3S2)c2ccc(C)s2)s1 | > 200 | > 200 µM | –
46 | NC1=NS(=O)(=O)Nc2nc[nH]c21 | > 1320 | > 1320 µM | –
47 | CC12C(=O)NC(c3ccncc3)(c3ccccc31)C1C(=O)N(c3ccccc3)C(=O)C12 (stereo not given) | > 200 | 191 µM | –
48 | CC(C)C1CC=CC2[C@H]3C(C)(CC[C@]12CBr)C(Br)CC[C@@]3(C)O (stereo not given in full) | – | – | inactive
49 | CC1(C)CC(=O)C(C=NC(=O)c2ccncc2)=C(O)C1 | 100 | > 200 µM | –
50 | CN(C)C(=S)SSC(=S)N(C)C | > 200 | 5.01 µM and 1.07 µM | inactive
51 | O=C(CCl)N1CCN(c2ccccn2)CC1 | > 1050 | – | –
52 | CC(=O)C(CN1CCOCC1)C(c1ccccc1)c1c(O)c2ccccc2oc1=O (stereo not given) | > 89.1 | 55 µM | –
53 | COc1cc2c3cc1Oc1c(OC)c(OC)cc4c1[C@H](Cc1cc5c(c(c1)Oc1ccc(cc1)CC3N(C)CC2)OCO5)N(C)CC4 (stereo not given in full) | – | – | inactive
54 | CSc1ccc(NC(=O)Nc2cccc(C)n2)cc1 | > 200 | > 200 µM | –
55 | O=[N+]([O-])c1ccc(OC2CC3C4C=CC3C2C4)c([N+](=O)[O-])c1 (stereo not given) | > 200 | > 200 µM | –
56 | CCOC(=O)C(C(=O)OCC)=C1C=C(c2ccccc2)c2ccccc21 | – | – | inactive
57 | CC(=O)N1C(Nc2nccs2)CCN1c1ccccc1 (stereo not given) | > 200 | 26.9 µM | –
58 | CCOc1cc2c(cc1O)CC[C@@H]1[C@@H]2CC[C@]2(C)C(N)CC[C@@H]12 (stereo not given in full) | > 200 | 1.2 µM | –
59 | N#CCCN(C(=O)Nc1cccc(C(F)(F)F)c1)C1CCCCC1 | > 200 | > 200 µM | –
60 | C1CSC[C@H]2COC[C@@H](CSCCS1)S2 | > 631 | > 631 µM | –
61 | CC(=O)Oc1ccc(/C=C/C(=O)O[C@@H](C(=O)O)[C@@H](OC(=O)/C=C/c2ccc(OC(C)=O)c(OC(C)=O)c2)C(=O)O)cc1OC(C)=O | > 30.2 | > 30.2 µM | –
62 | CCOC(=O)C1=NN(c2ccccc2)C(=O)/C1=C\N1C(=O)/C(=C/c2cccc(OC)c2O)SC1=S | > 100 | 53.7 µM | –
63 | O=C(O)CNC(=O)Cn1[se]c2ccccc2c1=O | 18.2 | 110 µM | –
64 | CCN(CC)c1c(C(=O)/C=C/c2ccc(Cl)cc2)c(-c2ccccc2)nn(C)c1=O | > 23.4 | 4.9 µM | –
65 | NNC(=O)N/N=C1\CN(c2ccc(Cl)cc2Cl)C(=O)C(=O)C1c1nc2ccccc2o1 (stereo not given) | – | – | inactive
66 | O=[N+]([O-])c1cccc(N=Cc2ccc(Cl)cc2)c1 | > 200 | 123 µM | –
